Read-outs that look alike come from different tables or passages of the source. Residues, ends and D or L forms follow the SMILES beside them. No end group written: not given here. *: point of attachment. X1 = CCCC[C@@H](CCS(C)(=O)=O)Nc1nc(N)nc(C)c1Cc1cc(CC(=O)*)ccc1OC
Biological target: T1, human TLR7 (hTLR7) (Homo sapiens, UniProt Q9NYK1)
T1 construct: host or cells: HEK293 (HEK-Blue hTLR7)
T1 sequence (Q9NYK1 27-1049): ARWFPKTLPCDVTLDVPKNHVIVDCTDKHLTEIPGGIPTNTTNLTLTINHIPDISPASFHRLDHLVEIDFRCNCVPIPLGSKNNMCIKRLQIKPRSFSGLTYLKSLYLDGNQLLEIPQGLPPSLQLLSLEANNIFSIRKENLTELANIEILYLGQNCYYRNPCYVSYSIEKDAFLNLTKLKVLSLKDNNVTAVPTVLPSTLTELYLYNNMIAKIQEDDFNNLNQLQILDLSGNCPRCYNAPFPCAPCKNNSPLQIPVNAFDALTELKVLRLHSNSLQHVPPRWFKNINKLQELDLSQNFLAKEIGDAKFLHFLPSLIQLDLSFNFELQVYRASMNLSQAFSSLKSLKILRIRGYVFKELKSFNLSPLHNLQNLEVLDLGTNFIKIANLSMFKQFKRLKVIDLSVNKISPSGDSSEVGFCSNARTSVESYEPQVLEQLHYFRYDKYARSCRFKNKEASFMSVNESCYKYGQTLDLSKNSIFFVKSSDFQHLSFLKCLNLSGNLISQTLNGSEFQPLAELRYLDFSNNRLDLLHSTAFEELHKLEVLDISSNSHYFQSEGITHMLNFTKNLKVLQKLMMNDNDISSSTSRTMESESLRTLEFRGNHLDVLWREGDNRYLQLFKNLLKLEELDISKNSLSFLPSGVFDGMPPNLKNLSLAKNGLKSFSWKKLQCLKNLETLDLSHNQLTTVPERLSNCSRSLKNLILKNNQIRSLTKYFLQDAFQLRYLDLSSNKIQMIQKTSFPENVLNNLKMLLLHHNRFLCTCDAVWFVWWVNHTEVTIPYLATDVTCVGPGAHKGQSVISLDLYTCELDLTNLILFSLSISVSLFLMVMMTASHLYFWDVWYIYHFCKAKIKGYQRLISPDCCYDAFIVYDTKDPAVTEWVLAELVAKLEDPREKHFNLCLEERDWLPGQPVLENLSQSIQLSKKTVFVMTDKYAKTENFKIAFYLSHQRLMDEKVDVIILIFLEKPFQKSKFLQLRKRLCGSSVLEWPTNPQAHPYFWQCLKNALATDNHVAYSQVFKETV
Test: HEK-Blue hTLR7 cell assay (NF-kB/AP-1 driven SEAP reporter)
Assay type: cell-based
From the text: HEK-Blue™ TLR7 cells were purchased from Invivogen (San Diego, Calif.). The following description was taken from the product information sheet.
“HEK-Blue™ hTLR7 cells are designed for studying the stimulation of human TLR7 (hTLR7) by monitoring the activation of NF-kB. HEK-Blue™ hTLR7 cells were obtained by co-transfection of the hTLR7 gene and an optimized secreted embryonic alkaline phosphatase (SEAP) reporter gene into HEK293 cells. The SEAP reporter gene is placed under the control of the IFN-b minimal promoter fused to five NF-kB and AP-1-binding sites. Stimulation with a TLR7 ligand activates NF-kB and AP-1 which induce the production of SEAP, which is detected by the HEK-Blue™ Detection cell culture medium.”
A typical assay protocol involved the following steps:
1. Cells were cultured according to the product information sheet.
2. 10 mM compound stock in DMSO were first diluted to 3 mM and then 3-fold serially diluted using DMSO to afford a 10-pt dilution.
3. 3 μl of the diluted DMSO were added to 57 μl HEK-Blue™ Detection media for a further 20-fold dilution.
4. 10 μl of the diluted compound in assay media were added into 40 μl cell culture (in HEK-Blue™ Detection media) in 384-well plate. Final cell concentration=8,000 cells per well.
5. The plates were incubated at 37° C. in 5% CO2 for 16 h. SEAP was determined using a spectrophotometer at 620-655 nm.

[1] = HEK TLR7 activity of unconjugated (naked) peptides, read-out: EC50, Peptide without Compound 1

Molecule | EC50 [1] [nM] | EC50 [nM] | also measured
LLTRILTIPQSLDSWWTSLNFLGGS [AP9] | > 30000 |  | 
TLTCGFADLMGYIPLVGAPLGGAAR [AP3] | > 30000 |  | 
CCCC[C@@H](CCS(C)(=O)=O)Nc1nc(N)nc(C)c1Cc1cc(CC(=O)NCCCC[C@H](NC(C)=O)C(=O)O)ccc1OC [Compound 1-lysine conjugate] |  |  | EC50 (HEK-Blue hTLR7 cells, 16 h incubation, SEAP read at 620-655 nm, read-out: HEK-TLR7 EC50): 100 nM
CCCC[C@@H](CCS(C)(=O)=O)Nc1nc(N)nc(C)c1Cc1cc(CC(=O)N[C@@H](CC(N)=O)C(=O)N[C@@H](CCCNC(=N)N)C(=O)N[C@@H](Cc2ccccc2)C(=O)N[C@H](C(=O)N[C@@H](CO)C(=O)N[C@H](C(=O)N[C@@H](Cc2ccccc2)C(=O)N[C@@H](C)C(=O)N[C@@H](CO)C(=O)NCC(=O)N2CCC[C@H]2C(=O)N[C@@H](CO)C(=O)N[C@@H](CCC(N)=O)C(=O)N[C@@H](CCCCN)C(=O)N[C@H](C(=O)N[C@@H](CCC(N)=O)C(=O)N[C@@H](CC(C)C)C(=O)N[C@H](C(=O)N[C@@H](CC(N)=O)C(=O)N[C@@H](CC(N)=O)C(=O)N[C@@H](CC(N)=O)C(=O)NCC(=O)N[C@@H](CO)C(=O)N[C@@H](Cc2c[nH]c3ccccc23)C(=O)N[C@@H](Cc2c[nH]cn2)C(=O)O)C(C)C)[C@@H](C)CC)[C@@H](C)CC)C(C)C)ccc1OC [*AP5] (X1-NRFVSIFASGPSQKIQLVNNNGSWH-OH) |  | 150 | 
NRFVSIFASGPSQKIQLVNNNGSWH [AP5] | > 30000 |  | 
CCCC[C@@H](CCS(C)(=O)=O)Nc1nc(N)nc(C)c1Cc1cc(CC(=O)N[C@@H](CC(C)C)C(=O)N[C@@H](CC(C)C)C(=O)N[C@H](C(=O)N[C@@H](CCCNC(=N)N)C(=O)N[C@H](C(=O)N[C@@H](CC(C)C)C(=O)N[C@H](C(=O)N[C@H](C(=O)N2CCC[C@H]2C(=O)N[C@@H](CCC(N)=O)C(=O)N[C@@H](CO)C(=O)N[C@@H](CC(C)C)C(=O)N[C@@H](CC(=O)O)C(=O)N[C@@H](CO)C(=O)N[C@@H](Cc2c[nH]c3ccccc23)C(=O)N[C@@H](Cc2c[nH]c3ccccc23)C(=O)N[C@H](C(=O)N[C@@H](CO)C(=O)N[C@@H](CC(C)C)C(=O)N[C@@H](CC(N)=O)C(=O)N[C@@H](Cc2ccccc2)C(=O)N[C@@H](CC(C)C)C(=O)NCC(=O)NCC(=O)N[C@@H](CO)C(=O)O)[C@@H](C)O)[C@@H](C)CC)[C@@H](C)O)[C@@H](C)CC)[C@@H](C)O)ccc1OC [*AP9] (X1-LLTRILTIPQSLDSWWTSLNFLGGS-OH) |  | 320 | 
EQLSSVSSFERFEIFPKESSWPNHN [AP11] |  | > 30000 | 
CC[C@H](C)[C@H](NC(=O)[C@H](CCCCN)NC(=O)CNC(=O)[C@@H](NC(=O)[C@@H](NC(=O)[C@@H](NC(=O)[C@H](Cc1ccccc1)NC(=O)[C@H](C)NC(=O)[C@H](CCCNC(=N)N)NC(=O)CNC(=O)[C@@H]1CCCN1C(=O)CNC(=O)[C@H](CCCNC(=N)N)NC(=O)[C@H](CCC(N)=O)NC(=O)[C@@H](NC(=O)[C@H](CCCNC(=N)N)NC(=O)[C@@H](NC(=O)[C@H](CO)NC(=O)[C@H](CCCCN)NC(=O)[C@H](CCCNC(=N)N)NC(=O)[C@@H](N)CCCCN)[C@@H](C)CC)[C@@H](C)CC)C(C)C)[C@@H](C)O)[C@@H](C)CC)C(=O)NCC(=O)N[C@@H](CC(N)=O)C(=O)N[C@@H](CCSC)C(=O)N[C@@H](CCCNC(=N)N)C(=O)O [AP6] |  | > 30000 | 
DTIWALSVKYGVSVQDIMSWNNLSS [AP7] |  | > 10000 | 
CCCC[C@@H](CCS(C)(=O)=O)Nc1nc(N)nc(C)c1Cc1cc(CC(=O)N[C@@H](CCC(=O)O)C(=O)N[C@@H](CO)C(=O)N[C@@H](CC(C)C)C(=O)N[C@@H](CCCCN)C(=O)N[C@H](C(=O)N[C@@H](CO)C(=O)N[C@@H](CCC(N)=O)C(=O)N[C@@H](C)C(=O)N[C@H](C(=O)N[C@@H](Cc2c[nH]cn2)C(=O)N[C@@H](C)C(=O)N[C@@H](C)C(=O)N[C@@H](Cc2c[nH]cn2)C(=O)N[C@@H](C)C(=O)N[C@@H](CCC(=O)O)C(=O)N[C@H](C(=O)N[C@@H](CC(N)=O)C(=O)N[C@@H](CCC(=O)O)C(=O)N[C@@H](C)C(=O)NCC(=O)N[C@@H](CCCNC(=N)N)C(=O)N[C@@H](CCC(=O)O)C(=O)N[C@H](C(=O)N[C@H](C(=O)NCC(=O)O)C(C)C)C(C)C)[C@@H](C)CC)C(C)C)[C@@H](C)CC)ccc1OC [*AP10] (X1-ESLKISQAVHAAHAEINEAGREVVG-OH) |  |  | EC50 (HEK TLR7 activity of Compound 1-peptide conjugates, read-out: EC50, Peptide - Compound 1 Conjugate): 210 nM
LGRLMYDMYPHFMPTNLGPSEKRVW [AP8] | > 30000 |  | 
